Key:
prostate tumor = assay: Intratumoral Rose Bengal plus green light; type: in vivo; settings: approximately 10% W/V solution i.t.; green light 500-600 nm
[1] = Absorbance properties of halogenated xanthenes (λmax, α); type: physicochemical
Description: Certain general properties of this class of agents are discussed in further detail in U.S. Ser. No. 09/130,041, filed on Aug. 6, 1998, U.S. Ser. No. 09/184,388, filed on Nov. 2, 1998, and U.S. Ser. No. 09/216,787, filed on Dec. 21, 1998, which are herein incorporated by reference in their entirety.

[2] = Serum level after per oesophageal administration; type: in vivo; settings: approximately 10% W/V solution p.o.
cutaneous tumors = assay: Per oesophageal Rose Bengal plus green light, mice with cutaneous tumors; type: in vivo; settings: approximately 10% W/V solution p.o.; green light 500-600 nm
[3] = tested on: tumor cell suspensions (e.g. melanoma, breast tumor, liver tumor, renal carcinoma, gall bladder tumor or prostate tumor); assay: Photodynamic treatment of subcutaneous primary tumors in nude mice; type: in vivo
thyroid tumor = assay: Intratumoral Rose Bengal plus green light; type: in vivo; settings: approximately 10% W/V solution i.t.; green light 500-600 nm
[4] = tested on: antibiotic resistant Staphylococcus aureus; assay: Photodynamic eradication of microbes; type: cell-based; settings: aqueous solution approximately 1 to 10 micromolar; green light 500-600 nm
[5] = tested on: procaryotic or eucaryotic cell cultures; assay: Dark and light cytotoxicity in cell cultures; type: cell-based; settings: concentrations equivalent to or greater than 100 mg/kg
Description: Further, the inventors of the present invention have shown that these agents are readily cleared from healthy tissues in a matter of several hours and are known to be rapidly excreted in bile, urine and feces, without doing damage to those healthy tissues while it was there.

renal adenocarcinoma [6] = assay: Per oesophageal Rose Bengal plus 532 nm light, murine renal adenocarcinoma tumor model; type: in vivo, Balb C Nude (nu/nu) mice
[7] = Photochemical quantum yields (triplet, singlet oxygen); type: physicochemical
[8] = Retention of agent after intratumoral or peritumoral injection; settings: mouse, in vivo
Method: Initially, tumor cell suspensions (e.g. melanoma, breast tumor, liver tumor, renal carcinoma, gall bladder tumor or prostate tumor) were injected subcutaneously into the flanks of nude mice resulting in formation of primary tumors, within a few weeks, at the injection site having a volume of approximately 0.1 cm^3 to 0.5 cm^3.

esophageal tissue = assay: Per oesophageal Rose Bengal plus green light on esophageal tissue; type: in vivo, canines; settings: approximately 1.0% W/V solution p.o.; green light 500-600 nm
Renal Adenocarcinoma [9] = assay: Intratumoral injection plus light, murine tumor model; type: in vivo; settings: for No. Tumors Cured: 4 treated
cutaneous lipocytes = assay: Systemic administration to obese mice: accumulation in and photodynamic destruction of cutaneous lipocytes; type: in vivo, obese laboratory mice
Description: For example, Rose Bengal's relatively large partition coefficient is indicative of a preference for accumulation in lipophilic tissue, such as cutaneous lipocytes.

various yeasts = assay: Photodynamic eradication of microbes; type: cell-based; settings: aqueous solution approximately 1 to 10 micromolar; green light 500-600 nm
metastatic breast tumor = assay: Intratumoral Rose Bengal plus green light; type: in vivo; settings: approximately 10% W/V solution i.t.; green light 500-600 nm
[10] = tested on: Human Breast Adenocarcinoma (MCF-7); assay: Intratumoral injection plus light, murine tumor model; type: in vivo; settings: i.t. approx. 30 μL 10% solution, tumor 3 × 4 × 4 mm, 100 J/cm^2 532 nm
BNL/SV40 Liver Cell = assay: as above; type: in vivo; settings: i.t. approx. 30 μL 10% solution, tumor 8 × 10 × 5 mm, 50 J/cm^2 532 nm
lung tumor = assay: Intratumoral Rose Bengal plus green light; type: in vivo; settings: approximately 10% W/V solution i.t.; green light 500-600 nm
Escherichia coli = assay: Photodynamic eradication of microbes; type: cell-based; settings: aqueous solution approximately 1 to 10 micromolar; green light 500-600 nm
[11] = No Light control, 0 J/cm^2, i.t. 10% solution, tumor 2 × 3 × 3 mm
[12] = i.t. approx. 30 μL 10% solution, tumor 2 × 3 × 3 mm, 100 J/cm^2 532 nm
[13] = i.t. approx. 30 μL 10% solution, tumor 5 × 8 × 8 mm, 100 J/cm^2 532 nm

α [1]: 100000 L/cm/mol
λmax (nm) EtOH ([1]; EtOH): 557 nm
λmax (nm) H2O ([1]; H2O): 547 nm
λmax (nm) MeOH ([1]; MeOH): 556 nm
Serum levels of Rose Bengal [2]: transient elevation of serum levels
φ (singlet oxygen) EtOH ([7]; EtOH): 0.75
φ (singlet oxygen) H2O ([7]; H2O): 0.86
φ (singlet oxygen) MeOH ([7]; MeOH): 0.76
φ (triplet) MeOH ([7]; MeOH): 0.76
Injected dose remaining in the tumor [8]: more than 75%
Tissue accumulation after systemic administration (cutaneous lipocytes; aqueous solution i.p. or p.o., cutaneous fat deposits of obese mice): highly selective accumulation
SMILES: O=C1OC2(c3cc(I)c(O)c(I)c3Oc3c2cc(I)c(O)c3I)c2c(Cl)c(Cl)c(Cl)c(Cl)c21 [Rose Bengal, 4,5,6,7-tetrachloro-2′,4′,5′,7′-Tetraiodofluorescein]
Tumor response (prostate tumor): controlled, localized photodynamic eradication
Tumor response (cutaneous tumors): substantial or complete photodynamic eradication
Tumor response after p.o. administration and illumination ([3]; 10-30 μL of 10% solution (1-3 mg) p.o., 532 nm, 50-200 J/cm^2, 3-48 hours post administration): selective destruction of tumor tissue with no substantive effect in healthy surrounding tissue
Tumor response after intratumoral injection and illumination ([3]; i.t., similar formulation, light at 532 nm): selective tumor destruction
Tumor response (thyroid tumor): controlled, localized photodynamic eradication
Eradication of microbes [4]: substantial or complete eradication
Light cytotoxicity: effect on cell cultures ([5]; light between about 500 nm and 600 nm): immediate and complete kill
Dark cytotoxicity: effect on viability of cultures ([5]; no illumination): no measurable effect on the viability
Cure Rate (renal adenocarcinoma [6]; 10% solution p.o. approx. 50 mg/kg, 100 J/cm^2 532 nm, latency 3 hr): 60% (3/5)
No. Tumors With Positive Response (renal adenocarcinoma [6]; 10% solution p.o. approx. 50 mg/kg, 100 J/cm^2 532 nm, latency 3 hr, 5 tumors treated, eschar at tumor site 24 h after illumination): 3
Cure Rate (renal adenocarcinoma [6]; 10% solution p.o. approx. 50 mg/kg, 100 J/cm^2 532 nm, latency 20 hr): 78% (7/9)
No. Tumors With Positive Response (renal adenocarcinoma [6]; 10% solution p.o. approx. 50 mg/kg, 100 J/cm^2 532 nm, latency 20 hr, 9 tumors treated): 7
Cure Rate (renal adenocarcinoma [6]; No Light control, 0 J/cm^2, p.o. approx. 50 mg/kg): 0% (0/2)
No. Tumors With Positive Response (renal adenocarcinoma [6]; No Light control, 0 J/cm^2, p.o. approx. 50 mg/kg, 2 tumors treated): 0
Damage in peritumoral tissues (renal adenocarcinoma [6]; p.o. approx. 50 mg/kg, tumor and peritumoral area illuminated, 100 J/cm^2 532 nm): eschar formation selectively at the tumor site. No damage was noted in peritumoral tissues. “No Light” and
Tissue localization after i.t. administration [8]: persistent accumulation and retention of Rose Bengal uniformly throughout the tumor volume
Tissue response in illuminated region (esophageal tissue): controlled, localized photodynamic destruction of tissues in the treated region
Cure Rate (Renal Adenocarcinoma [9]; [11]): 0%
No. Tumors Cured (Renal Adenocarcinoma [9]; [11]): 0
Cure Rate (Renal Adenocarcinoma [9]; [12]): 100%
No. Tumors Cured (Renal Adenocarcinoma [9]; [12]): 4
Cure Rate (Renal Adenocarcinoma [9]; [13]): 50%
No. Tumors Cured (Renal Adenocarcinoma [9]; [13]): 2
Photodynamic effect on lipocytes (cutaneous lipocytes; illumination of skin at approximately 532 nm after systemic administration): selective photodynamic destruction of such lipocytes with no effect in overlying skin or underlying muscle tissue
Eradication of microbes (various yeasts): substantial or complete eradication
Tumor response (metastatic breast tumor): controlled, localized photodynamic eradication
Cure Rate [10]: 100%
No. Tumors Cured ([10]; 2 treated): 2
Cure Rate (BNL/SV40 Liver Cell): 25%
No. Tumors Cured (BNL/SV40 Liver Cell; 8 treated, reoccurrence at 2-3 weeks): 2
Tumor response (lung tumor): controlled, localized photodynamic eradication
Eradication of microbes (Escherichia coli): substantial or complete eradication

Source: patent US20050282889A1, “Intracorporeal medicaments for photodynamic treatment of disease” (priority 1996, published 2005)
